In publication PMC4389368, “Sarmentine, a natural herbicide from Piper species with multiple herbicide mechanisms of action” (Frontiers in Plant Science, 2015):

Experiments:
[1] = target: T1, photosystem II QB protein (D1) (Spinacia oleracea, UniProt P69560); assay: […]-atrazine displacement on spinach thylakoid membranes; assay type: binding
T1 construct: gene psbA; isolated thylakoid membranes; with photosystem II complex

[2] = test system: T2, photosystem II QB protein (D1); assay: oxygen evolution in isolated thylakoid membranes; assay type: biochemical, Amaranthus retroflexus
T2 construct: gene psbA; isolated thylakoid membranes, wild-type; with photosystem II complex

[3] = target: T3, enoyl-ACP reductase (ENR) (Arabidopsis thaliana, UniProt Q9SLA8); assay: NADH oxidation (A340) with purified recombinant enzyme; assay type: biochemical
T3 construct: gene MOD1
T3 sequence (Q9SLA8 75-390): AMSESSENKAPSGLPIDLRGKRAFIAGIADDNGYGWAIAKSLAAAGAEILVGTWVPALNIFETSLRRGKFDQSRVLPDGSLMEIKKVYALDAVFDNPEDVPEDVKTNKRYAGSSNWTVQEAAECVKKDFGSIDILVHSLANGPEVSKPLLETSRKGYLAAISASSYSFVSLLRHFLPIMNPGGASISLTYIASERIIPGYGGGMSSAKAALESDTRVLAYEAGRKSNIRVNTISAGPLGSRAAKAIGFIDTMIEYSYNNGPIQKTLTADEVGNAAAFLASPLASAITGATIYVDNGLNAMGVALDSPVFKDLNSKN

Ki [1]	IC50 [3]	SMILES	IC50 [2]
1500 nM	18300 nM	CCCCC/C=C/C=C/C(=O)N1CCCC1 [Sarmentine, 1-(1-pyrrolidinyl)-(2E,4E)-2,4-decadien-1-one]	1720 nM
–	–	CCNc1nc(Cl)nc(NC(C)C)n1 [atrazine]	600 nM
